Molecules are shown by their SMILES. Some results are limits rather than exact numbers.

The term IC50 denotes the concentration that inhibits the measured activity by half.

In the assay the target is T1, human TRPV1 (Homo sapiens, UniProt Q8NER1).
T1 construct: using primers designed surrounding the complete hTRPV1 open reading frame; expressed in transfected cells; host or cells: CHO-K1 cells stably transfected with pcDNA3.1(-)-hVR1 plasmid
T1 sequence (Q8NER1 whole entry): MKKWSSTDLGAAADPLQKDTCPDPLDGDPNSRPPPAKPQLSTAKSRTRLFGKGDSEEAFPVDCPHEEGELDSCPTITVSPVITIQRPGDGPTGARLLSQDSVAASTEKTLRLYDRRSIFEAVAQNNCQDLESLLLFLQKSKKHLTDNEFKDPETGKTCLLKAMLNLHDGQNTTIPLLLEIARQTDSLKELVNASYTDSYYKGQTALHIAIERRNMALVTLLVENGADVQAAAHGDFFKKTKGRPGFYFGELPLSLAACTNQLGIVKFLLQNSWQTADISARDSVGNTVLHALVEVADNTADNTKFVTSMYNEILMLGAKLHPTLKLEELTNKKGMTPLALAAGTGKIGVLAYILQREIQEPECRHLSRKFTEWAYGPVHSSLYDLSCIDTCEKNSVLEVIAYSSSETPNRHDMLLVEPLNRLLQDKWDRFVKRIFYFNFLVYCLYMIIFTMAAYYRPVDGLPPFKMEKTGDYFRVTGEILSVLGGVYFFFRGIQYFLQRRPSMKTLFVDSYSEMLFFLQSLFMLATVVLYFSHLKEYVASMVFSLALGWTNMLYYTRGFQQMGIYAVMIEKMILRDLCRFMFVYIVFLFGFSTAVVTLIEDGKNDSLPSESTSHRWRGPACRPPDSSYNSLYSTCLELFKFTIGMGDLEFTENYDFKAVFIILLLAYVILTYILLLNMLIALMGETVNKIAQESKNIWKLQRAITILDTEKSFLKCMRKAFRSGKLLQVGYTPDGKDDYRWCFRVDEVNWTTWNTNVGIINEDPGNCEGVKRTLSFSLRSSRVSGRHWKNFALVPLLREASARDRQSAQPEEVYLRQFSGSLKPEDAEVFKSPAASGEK
Put plainly: Capsaicin-based assay, Protocol 2 (TRPV1/CHO cells, Fluo-4, FLIPR). Type of assay: cell-based. Conditions: capsaicin 100 nM final, mean ± SEM, number of trials in parentheses, read-out: TRPV1 IC50 Potency, Human Capsaicin CHO (hCAP-CHO). The text has this: The TRPV1/CHO cell line was generated as described below. […] The resulting PCR products were purified from agarose gels using Gel Band Purification Kit (GE Healthcare Bioscience) and were subcloned into pCR-Blunt vector (Invitrogen). The cloned cDNA was fully sequenced using a fluorescent dye-terminator reagent (BigDye Terminator ver3.1 Cycle Sequencing Kit, Applied Biosystems) and ABI Prism 3100 genetic analyzer (Applied Biosystems). The pCR-Blunt vector containing the hTRPV1 cDNA was subjected to restriction digestion with EcoRI. The restriction fragment was subcloned into expression vector pcDNA3.1 (-) (Invitrogen) and named pcDNA3.1 (-)-hVR1 plasmid. The sequence of the cDNA encoding TRPV1 is available at GenBank accession number AJ277028. […] The cells were transfected with the pcDNA3.1 (-)-hVR1 plasmid using FuGENE6 (Roche) according to the manufacturer's protocol. 24 hr after transfection, neomycin-resistant cells were selected using 1 mg/mL G418 (Nacalai Tesque). […] The cells expressing hTRPV1 were cultured in the growth medium supplemented with 1 mg/mL G418. […] Subsequently, the cells were loaded by incubation in 0.1 mL of wash buffer containing Fluo-4 at 3 μM final concentration. After 1 hour, the cells were washed twice with 0.2 mL wash buffer and resuspended in 0.1 mL wash buffer. The plates were then transferred to a Fluorescence Imaging Plate Reader (Molecular Devices). Fluorescence intensity was monitored for 15 seconds to establish a baseline. […] The final concentration of the compound was adjusted to range from 100 μM to 1.5625 μM. […] Data were collected over the entire time course and analyzed using Excel and the curve-fitting formula GraphPad Prism.
Take `CN(C)CC(O)c1cnc(C2=CCN(C(=O)Nc3ccc(C(F)(F)F)cc3)CC2)c(Cl)c1` (single isomer, unassigned) [Compound L5]: the IC50 is more than 10 µM. Regarding `CC(C)c1cc(NC(=O)N2CC=C(c3ncccc3Cl)CC2)ccc1OC(F)(F)F` [Compound 205], the IC50 is more than 25 µM. On to `O=C(Nc1ccc(C(F)(F)F)cc1)N1CCC(F)(c2ncc(C(O)CO)cc2Cl)CC1` (stereo not shown) [Compound A1], for which the IC50 turned out to be 0.007 ± 0.0018 µM. Regarding `COc1cc(NC(=O)N2CC=C(c3ncc([C@H](O)CO)cc3Cl)CC2)ccc1C(F)(F)F` [Compound A2], the IC50 worked out at 0.0841 ± 0.0112 µM. On to `CC1(C)CCOc2cc(NC(=O)N3CC=C(c4ncc([C@H](O)CO)cc4F)CC3)ccc21` [Compound A4], for which the IC50 stood at 0.0551 ± 0.0086 µM. Next, `O=C(Nc1ccc(S(=O)(=O)N2CCCC2)c(C(F)(F)F)c1)N1CC=C(c2ncc([C@@H](O)CO)cc2Cl)CC1` [Compound C3]: 0.541 ± 0.216 µM; `O=C(Nc1ccc(C(F)(F)F)c(-c2ccccc2)c1)N1CC=C(c2ncc(CO)cc2Cl)CC1` [Compound D3]: 0.565 ± 0.0586 µM. Next, `COc1cc(NC(=O)N2CCC(F)(c3ncc([C@@H](O)CO)cc3F)CC2)ccc1C(F)(F)F` [Compound D5]: 0.133 ± 0.0291 µM; `O=C(Nc1ccc(C(F)(F)F)cn1)N1CC=C(c2ncc(CCO)cc2Cl)CC1` [Compound D6]: 0.621 ± 0.117 µM; `CC(C)(C)c1ccc(NC(=O)N2CC=C(c3ncc([C@@H](O)CO)cc3F)CC2)cc1` [Compound E1]: 0.0185 ± 0.0049 µM. The same measure for `COc1cc(NC(=O)N2CCC(F)(c3ncc([C@@H](O)CO)cc3Cl)CC2)ccc1C(F)(F)F` [Compound E4]: 0.0757 ± 0.0128 µM; for `O=C(Nc1nc2ccc(F)cc2s1)N1CCC(F)(c2ncc([C@H](O)CO)cc2F)CC1` [Compound F5]: 0.166 ± 0.0247 µM. For the compound `O=C(Nc1ccc(OC(F)(F)F)c(Cl)c1)N1CC=C(c2ncc([C@H](O)CO)cc2Cl)CC1` [Compound H2], the IC50 was 0.118 ± 0.0221 µM. The same measure for `COCc1cnc(C2=CCN(C(=O)Nc3ccc(C(F)(F)F)cn3)CC2)c(Cl)c1` [Compound H3]: 1.11 ± 0.134 µM; for `CC(C)S(=O)(=O)c1ccc(NC(=O)N2CC=C(c3ncc(CO)cc3Cl)CC2)cc1C(F)(F)F` [Compound I3]: 1.36 ± 0.337 µM. Next, `COc1cc(C(F)(F)F)ccc1NC(=O)N1CC=C(c2ncc(CO)cc2Cl)CC1` [Compound J3]: 2.94 ± 0.319 µM. The same measure for `O=C(Nc1nc2ccc(Cl)cc2[nH]1)N1CCC(F)(c2ncc([C@@H](O)CO)cc2F)CC1` [Compound J5]: 1.88 ± 0.634 µM. `O=C(Nc1ccc(C(F)(F)F)cn1)N1CC=C(c2ncc([C@H](O)CO)cc2F)CC1` [Compound K4]: the IC50 turned out to be 0.21 ± 0.0195 µM. The same measure for `CN1CCCc2ccc(NC(=O)N3CC=C(c4ncccc4F)CC3)cc21` [Compound K5]: 2.75 ± 0.542 µM; for `O=C(Nc1nc2ccc(F)cc2s1)N1CC=C(c2ncc([C@H](O)CO)cc2F)CC1` [Compound L4]: 0.439 ± 0.14 µM; for `CS(=O)(=O)NCc1cnc(C2=CCN(C(=O)Nc3ccc(C(F)(F)F)cc3)CC2)c(Cl)c1` [Compound M4]: 0.471 ± 0.127 µM. Next, `O=C(Nc1nc2ccc(Cl)cc2[nH]1)N1CCC(F)(c2ncc([C@H](O)CO)cc2Cl)CC1` [Compound N4]: 1.31 ± 0.221 µM; `O=C(Nc1nc2ccc(F)cc2s1)N1CCC(F)(c2ncc([C@@H](O)CO)cc2F)CC1` [Compound N5]: 0.14 µM; `CCCOc1cc(NC(=O)N2CC=C(c3ncc([C@H](O)CO)cc3Cl)CC2)ccc1C(F)(F)F` [Compound O1]: 0.0411 ± 0.0178 µM. The same measure for `O=C(Nc1ccc(S(=O)(=O)C(F)(F)F)cc1)N1CC=C(c2ncc([C@@H](O)CO)cc2Cl)CC1` [Compound O3]: 0.046 ± 0.0113 µM.

Consider `O=C(Nc1ccc(C(F)(F)F)cc1)N1CC=C(c2ncc(C(CO)CO)cc2Cl)CC1` [Compound O4, 4-(3-chloro-5-(1,3-dihydroxypropan-2-yl)pyridin-2-yl)-N-(4-(trifluoromethyl)phenyl)-5,6-dihydropyridine-1(2H)-carboxamide], for which the IC50 worked out at 1.52 ± 0.339 µM. The same measure for `Cc1cc2nc(NC(=O)N3CC=C(c4ncc([C@H](O)CO)cc4Cl)CC3)sc2cc1C` [Compound O5]: 0.244 µM; for `O=C(Nc1ccc(S(=O)(=O)C(F)(F)F)cc1)N1CC=C(c2ncc([C@H](O)CO)cc2F)CC1` [Compound P1]: 0.0505 ± 0.0095 µM.

For `O=C(Nc1nc2ccc(Cl)cc2[nH]1)N1CC=C(c2ncc([C@H](O)CO)cc2Cl)CC1` [Compound P4], the concentration for half-maximal inhibition (IC50) was found to be 1.81 ± 0.302 µM.

On to `CC1(c2ncc([C@@H](O)CO)cc2F)CCN(C(=O)Nc2ccc(C(F)(F)F)c(Cl)c2)CC1` [Compound P5], for which the IC50 was 0.0495 µM. The same measure for `CC1(c2ncc([C@H](O)CO)cc2F)CCN(C(=O)Nc2ccc(C(F)(F)F)c(Cl)c2)CC1` [Compound Q3]: 0.0143 ± 0.0013 µM; for `O=C(Nc1nc2ccc(Cl)cc2[nH]1)N1CC=C(c2ncc([C@@H](O)CO)cc2Cl)CC1` [Compound Q4]: 2.9 ± 0.302 µM; for `O=C(Nc1nc2ccc(F)cc2s1)N1CC=C(c2ncc([C@H](O)CO)cc2Cl)CC1` [Compound R1]: 0.051 ± 0.0188 µM. The same measure for `Cc1cc(NC(=O)N2CCC(F)(c3ncc([C@H](O)CO)cc3F)CC2)ccc1OC(F)(F)F` [Compound R3]: 0.0155 ± 0.0035 µM; for `O=C(Nc1nc2ccc(Cl)cc2[nH]1)N1CCC(F)(c2ncc([C@H](O)CO)cc2F)CC1` [Compound R4]: 3.28 ± 0.761 µM. Next, `Cc1cc(NC(=O)N2CC=C(c3ncc([C@@H](O)CO)cc3Cl)CC2)ccc1OC(F)(F)F` [Compound R5]: 0.346 µM; `CN(C(=O)N1CC=C(c2ncc([C@H](O)CO)cc2Cl)CC1)c1ccc(C(F)(F)F)cc1` [Compound S4]: 7.03 ± 2.06 µM. For `O=C(Nc1ccc(Cl)c(C(F)(F)F)c1)N1CC=C(c2ncc([C@H](O)CO)cc2Cl)CC1` [Compound T2], the IC50 stood at 0.226 ± 0.0693 µM. For the compound `O=C(Nc1ccc(C(F)(F)F)cc1)N1CCC(F)(c2ncc(C(O)(CO)CO)cc2Cl)CC1` [Compound T5], the IC50 was 0.451 ± 0.0924 µM. The same measure for `O=C(Nc1ccc(C(F)(F)F)c(F)c1)N1CCC(F)(c2ncc([C@@H](O)CO)cc2Cl)CC1` [Compound U5]: 0.0199 ± 0.0069 µM; for `COc1cc(NC(=O)N2CCC(F)(c3ncc([C@H](O)CO)cc3Cl)CC2)ccc1C(F)(F)F` [Compound V3]: 0.034 ± 0.0092 µM.

`O=C(Nc1ccc(C(F)(F)F)cc1)N1CCC(F)(c2ncc([C@@H](O)CO)cc2F)CC1` [Compound X4]: the IC50 worked out at 0.0384 ± 0.008 µM.

For `COc1cc(NC(=O)N2CC=C(c3ncc([C@@H](O)CO)cc3Cl)CC2)ccc1C(F)(F)F` [Compound X5], the IC50 worked out at 0.23 ± 0.0655 µM.

For the origin of these results see US20090170867A1, “TRPV1 ANTAGONISTS INCLUDING SULFONAMIDE SUBSTITUENT AND USES THEREOF” (Shionogi & Co., Ltd., priority 2007, published 2009).
